Tests used:
[1] = target: Leishmania donovani topoisomerase I (LdTOPILS); conditions: inhibitor of LdTOPILS; Roy A., et al., Biochemical Journal 2007; cited from earlier work
Py13XL malaria [2] = test: Anti-malaria effect (treatment) with naltrexone in infected mice; type: in vivo, BABL/C mice; conditions: for mice died: on 5 d
Procedure: (§1) • 45 BABL/C mice, six weeks old, were divided into 5 groups, 9 mice for each group. […] The survival was recorded from the third day of infection and infected rate of malaria are recorded by taking tail vein blood, smearing glass slide, Gimsa staining and checking parasitemia under microscope. • Finally changes of immune parameters in peripheral blood were measured by flow cytometry technology and made comparison to control.

[3] = tested on: immune cells in peripheral blood; test: Changes of immune parameters in peripheral blood post treatment, flow cytometry; type: in vivo, BABL/C mice; conditions: treatment group after low dose naltrexone
Procedure: as §1

[4] = tested on: Py13XL malaria (P. falciparum); test: Prevention of malaria by naltrexone in mice (dosing 7 days before infection); type: in vivo, BABL/C mice; conditions: for more mice died: on 6 d
Procedure: (§2) • 45 BABL/C mice, six weeks old, were divided into 5 groups, 9 mice for each group. […] The survival was recorded from the first day of infection and infected rate of malaria are recorded from the third day of infection by taking tail vein blood, smearing glass slide, Gimsa staining and checking parasitemia under microscope.

Py13XL malaria [5] = test: as above; type: in vivo, BABL/C mice; conditions: oral, 7 days before infection, on 5 d, 9 mice per group
Procedure: as §2

malaria = test: Case reports: relapse of malaria in patients given LDN; type: in vivo, human
Procedure: • A patient with HIV suffering from malaria has had relapses at least twice a year for the last five years.
• A person has suffered on and off from malaria for 40 years. The patient was administered 4.5 mg of LDN per day, as an adjunct treatment with chemotherapy.

[6] = 0.5 mg naltrexone treating group, oral daily 15 days from 2 d post infection, 9 mice per group
[7] = 1 mg naltrexone treating group, oral daily 15 days from 2 d post infection, 9 mice per group
[8] = 0.5 mg naltrexone per mouse, oral, 7 days before infection, 9 mice per group
[9] = 1 mg naltrexone per mouse, oral, 7 days before infection, 9 mice per group

c1ccc2c(Cc3c[nH]c4ccccc34)c[nH]c2c1 [DIM]
IC50 [1]: 1200 nM

O=C1CC[C@@]2(O)[C@H]3Cc4ccc(O)c5c4[C@@]2(CCN3CC2CC2)[C@H]1O5 [naltrexone]
mice still alive for end point (Py13XL malaria [2]; [6]): 3 mice
mice died (Py13XL malaria [2]; [6]): 2 mice
more mice died (Py13XL malaria [2]; 0.5 mg naltrexone treating group, oral daily 15 days from 2 d post infection, on 6 d, 9 mice per group): 4 mice
treatment effect compared between dose groups (Py13XL malaria [2]; 1 mg naltrexone group versus 0.5 mg and 2 mg): best treatment
mice still alive till end point (Py13XL malaria [2]; [7]): 6 mice
mice died (Py13XL malaria [2]; [7]): 0 mice
more mice died (Py13XL malaria [2]; 1 mg naltrexone treating group, oral daily 15 days from 2 d post infection, on 6 d, 9 mice per group): 2 mice
more mice died (Py13XL malaria [2]; 1 mg naltrexone treating group, oral daily 15 days from 2 d post infection, on 9 d, 9 mice per group): 1 mice
parasitemia (Py13XL malaria [2]; 1 mg naltrexone treating group, surviving mice, on 20 d): parasitemia disappeared
mice died (Py13XL malaria [2]; 2 mg naltrexone group, oral daily from 2 d post infection, 9 mice per group): 5 mice
more mice died (Py13XL malaria [2]; 2 mg naltrexone group, oral daily from 2 d post infection, on 6 d, 9 mice per group): 4 mice
toxicity to animals (Py13XL malaria [2]; 2 mg naltrexone, infected mice): shows toxicity
Total nucleated cell ([3]; control 1.30 ± 0.13, P < 0.01): 4.21 ± 0.75
Treg cell ([3]; control 4.22 ± 0.64, P < 0.01): 2.15 ± 0.48
NK cell ([3]; control 7.58 ± 1.59, P < 0.01): 20.39 ± 4.42
Macrophage ([3]; control 9.18 ± 0.26, P < 0.01): 12.1 ± 0.56
CD4+ T cell ([3]; control 22.65 ± 3.48, P < 0.01): 34.81 ± 5.78
CD8+ T cell ([3]; control 35.33 ± 3.62, P < 0.01): 59.63 ± 3.78
CD3+ T cell ([3]; control 48.90 ± 4.06, P < 0.01): 67.04 ± 4.20
mice still alive at the end point [4, 8]: 1 mice
more mice died [4, 8]: 7 mice
protecting effect compared between dose groups ([4]; 1 mg naltrexone per mouse versus 0.5 mg and 2 mg): best protecting effect
survival rate ([4]; 1 mg naltrexone per mouse, oral, 7 days before infection): 33.3%
mice still alive till the end point [4, 9]: 3 mice
more mice died [4, 9]: 5 mice
parasitemia ([4]; 1 mg naltrexone per mouse, surviving mice, on 20 d): all infection parasitemia disappeared
more mice died ([4]; 2 mg naltrexone per mouse, oral, 7 days before infection, 9 mice per group): 5 mice
mice died (Py13XL malaria [5]; 0.5 mg naltrexone per mouse): 1 mice
mice died (Py13XL malaria [5]; 1 mg naltrexone per mouse): 1 mice
mice died (Py13XL malaria [5]; 2 mg naltrexone per mouse): 4 mice
time without relapse of malaria (malaria; patient with HIV, relapses at least twice a year before, 4.5 mg per day as adjunct treatment for HIV): 24 months
time without relapse of malaria (malaria; person, malaria on and off for 40 years, 4.5 mg per day, adjunct with chemotherapy): over 24 months
